# Data published in patent US11058700B2, “Macrocyclic lactones and uses thereof as modulators of purinergic receptors” (City of Hope, priority 2015, dated 2021).
# Columns and labels:
# [1] = test system: P2X4/P2X7/Pannexin-1 channels; test: Membrane permeabilization to YOPRO-1; assay type: cell-based, mouse; conditions: 4T1.2 cells, 3 mM ATP and 32 μM Ivermectin
# Protocol: FIGS. 3A-3G. Dual roles of ATP and purinergic signaling in Ivermectin's killing. FIG. 3A: Depletion of extracellular ATP with Apyrase (2500 μunits/ml) exacerbates killing of 4T1.2 cell by Ivermectin. FIG. 3B: Extracellular Ca^2− and ATP contain Ivermectin-induced cell swelling. 4T1.2 cells were treated with 32 μM Ivermectin for 4 h in the presence of 1 mM EDTA or 2500 μunits/ml Apyrase. FIG. 3C: Ivermectin (0.5-32 μM) and high concentrations of extracellular ATP (0.3-3 mM) synergistically open pannexin-1 channels and permeabilize the membrane on live cells (7AAD-positive dead cells were gated out). 4T1.2 cells were treated for 30 min as indicated in the presence of 7 AAD and 5 μM YOPRO-1. FIG. 3D: Analysis of supernatants from Ivermectin-treated murine and human TNBC cells showing rapid release of ATP followed by its transient depletion. Depletion of extracellular ATP with Apyrase (2500 μunits/ml) was used as a positive control. FIG. 3E: Analysis of membrane-proximal ATP levels using cancer cells engineered to express a membrane-bound Luciferase. […] FIG. 3G: The P2X7-specific inhibitor KN-62 (1-10 μM) blocks Ivermectin cytotoxicity (IVM 8-32 μM, 4-48 h treatments). Asterisk (*) indicates p<0.05 relative to untreated or Ivermectin alone controls, respectively.
# FIGS. 10A-10L. Extracellular Dual roles of ATP and purinergic signaling in Ivermectin's killing. 4T1.2 cells were treated with Ivermectin for 4 h in the presence of different inhibitors at μM concentrations as indicated. FIG. 10A: The non-specific P2 purinergic receptor inhibitor Suramin (4-400 μM) exacerbates Ivermectin-induced cell death. FIG. 10B: Inhibition of extracellular ATPases with PSB 069 protects against Ivermectin cytotoxicity. FIG. 10C: Blockade of pannexin-1 channels with Panx-1 mimetic blocking peptide (Anaspec) and Probenecid at μM concentrations as indicated exacerbates killing. […] FIG. 10E: ATP plays a transiently protective role only in the mouse but not human breast cancer cells. 4T1.2 and MDA-MB-231 cells were treated with 32 μM Ivermectin for 4 h in the presence of ATP at mM concentrations as indicated. FIG. 10F: qPCR showing up-regulation of P2X4 and P2X7 receptors on several murine cancer cell lines, including 4T1.2 and DD-Her2/neu (breast), and B16 (melanoma). […] Expression of P2X and P2Y purinergic receptors, NOX family members, GABA, and Glycine receptors was analyzed using publicly available breast cancer cell lines datasets. Statistically significant (p<0.05) up-regulation and down-regulation in breast cancer versus normal cells is shown in red and blue, respectively. FIG. 10H: Correlation between sensitivity to Ivermectin and ATP across various human cancer cell lines. Cancer cells were treated for 24 h with 3 mM ATP or Ivermectin at 16 and 32 μM doses as indicated. […]
# [2] = test system: 4T1.2 cells; test: Cell viability (acid phosphatase assay) of cancer cells treated with Ivermectin; assay type: cell-based, mouse; conditions: for effect on Ivermectin-induced cell death: cells treated with Ivermectin (32 μM, 4 h in figure legends) in the presence of the agent
# Protocol: Cell viability. Cancer cells were plated on 96 well flat-bottom plates and allowed to attach overnight. Cells were then pre-incubated with drugs for 1 h and treated with Ivermectin for 4 h. In the case of 24 h and 48 h incubations the cells, Ivermectin and drugs were plated together. All treatments and controls were done in triplicate wells and results were validated in at least two independent experiments. Following treatment the plates were washed once with PBS and cell viability was measured using the acid phosphatase assay. Briefly, cells were incubated for 1h at 37° C. in 100 μL assay buffer (0.16 M sodium acetate, 0.1% Triton-X-100, supplemented with 4-Nitrophenyl phosphate disodium salt hexahydrate, Sigma Aldrich, at 0.00263 g/ml). Reaction was stopped using 10 μL of 1N sodium hydroxide. Absorption at 405 nm was measured within 10 min using a multi-well plate reader. Mode of cell death and viability of cells in suspension was evaluated using flow cytometry. Briefly, cancer cells were pre-incubated with drugs for 30 min to 1 h, as indicated, treated with Ivermectin for 4 h in 5 ml FACS tubes , washed twice in PBS and stained with PE-conjugated Annexin V and 7AAD (1 μl per 100 μl/200,000 cancer cells) for 15 min.
SMILES,block of ATP+Ivermectin-induced membrane permeabilization to YOPRO-1 [1],KN-62 needed to protect against Ivermectin-induced cell death [2],"long-term protection against Ivermectin ([2]; 24 h, 12 μM IVM)",effect on Ivermectin-induced cell death [2]
CN([C@@H](Cc1ccc(OS(=O)(=O)c2cccc3cnccc23)cc1)C(=O)N1CCN(c2ccccc2)CC1)S(=O)(=O)c1cccc2cnccc12 [KN-62],suppressed permeabilization to YOPRO-1 in a dose-dependent fashion,More than 1 μM,long-term protection against Ivermectin and ATP that extended up to 24 h,effective at blocking Ivermectin-induced necrotic and apoptotic cell death
Clc1cccc(-c2nnnn2Cc2cccnc2)c1Cl [A438079],suppressed permeabilization to YOPRO-1 in a dose-dependent fashion,,,did not observe any protection
COc1ccc(S(=O)(=O)N(CCO)c2ccccc2CN(C)C/C=C/c2ccc(Cl)cc2)cc1 [KN-93],most potent at blocking ATP- and Ivermectin-induced membrane permeabilization to YOPRO-1,,,effectively blocked Ivermectin-induced cell death
